{
  "source": "paper PMC11672137",
  "about": "“High-Affinity Lectin Ligands Enable the Detection of Pathogenic Pseudomonas aeruginosa Biofilms: Implications for Diagnostics and Therapy” (JACS Au, 2024)",
  "tested_on": "P. aeruginosa PAO1 biofilms",
  "experiment": "In vitro biofilm staining under flow conditions, compound supplementation to the medium",
  "format": "cell-based, Pseudomonas aeruginosa",
  "conditions": "3 mL/h",
  "method": "P. aeruginosa biofilms were grown under flow conditions and observed by fluorescence microscopy in analogy to Ghanbari et al.[66] To this end, P. aeruginosa PAO1 expressing the red fluorescent protein mCherry[56] was diluted to an OD600 nm of 0.1 and injected into the microfluidics device. After a 30-min settling period, biofilms were grown under a constant laminar flow rate of 3 mL/h per channel. Following 48 h of incubation at 30 °C, dense and mature P. aeruginosa PAO1 biofilms were observed, which were then further used for analysis of the imaging probes.\nTo circumvent these technical drawbacks, the addition of compounds to the medium reservoir and retention at the biofilm was pursued. Imaging compounds were added to the medium reservoirs at a concentration of 500 nM, which were continuously pumped (3 mL/h) through the flow cell for 4 h. Compound accumulation at mature P. aeruginosa biofilms was immediately analyzed using fluorescence microscopy. Afterwards, the medium was exchanged, and the biofilms were washed for 30 min (3 mL/h, no compound) to monitor the retention (Figure 5). Furthermore, an analysis using CLSM was also performed after 4 h of accumulation without washing (Figures 5 and S22).\nFigure 5 Staining of P. aeruginosa PAO1 biofilms grown under flow conditions with compound supplementation to the medium. Biofilm staining with (A) fluorescein divalent probe 17, (B) fluorescein control 24, (C) BODIPY divalent probe 19, and (D) BDP FL azide control 18 was monitored after 4 h of accumulation under constant flow (3 mL/h) of LB media containing 500 nM of respective compound. Retention of imaging compounds is shown after a subsequent wash period for 30 min with medium (3 mL/h, no compound). Images were recorded by using a fluorescence microscope. CLSM was performed for (E) BODIPY divalent probe 19 and the control (F) BDP FL azide 18 after 4 h of accumulation. Green signal originates from fluorescently labeled probes 17 and 19 and controls 24 and 18. P. aeruginosa constitutively expressing mCherry from pMP7605^56 is shown in red. Z-Stack size, 2 μm. Scale bar = 50 μm.\nIn vitro biofilm staining under flow conditions\nThe flow cell experiment was set up in analogy to Ghanbari et al. and in this study, optimized and established for biofilm staining.25 In principle, the experiment is based on an inlet connected to a medium source, a peristaltic pump providing constant medium flow, a flow chamber enabling analysis of bacterial growth and an outlet (waste container/bottle).\nThe medium used in the flow system was LB diluted by factor 5 containing 60 µg/mL\nGm. Silicone tubings 1.6 mm (ibidi, Germany) were used transporting medium from inlet to the peristaltic pump (Watson-Marlow Fluid Technology Solutions). Stopper hoses (CarlRoth) placed in peristaltic pump were coupled to silicone tubes via connectors (ibidi, Germany).\nStopper hoses are connected to bubble traps (obtained by Claus Sternberg, DTU Copenhagen) via 0.8 mm silicone tubing (ibidi, Germany). Bubble traps were used to remove air from the medium flow and to avoid biofilm disruption. Downstream from the bubble traps, the flow cell (μ-Slide VI 0.4 ibiTreat, ibidi, Germany) was placed into the system and connected to 1.6 mm silicone tubes (ibidi, Germany). The outlet is leading the medium from flow chamber to a waste […]\nIn order to inoculate the flow cell with P. aeruginosa PAO1 mCherry (pMP7605)23 the silicone tubes upstream and downstream of the flow chamber were pinched off by using commercial plastic clamps. The medium flow was stopped and the flow cell was inoculated by injecting 300 µL of the bacterial suspension (OD600nm of 0.1) into the silicone tubing upstream of the flow chamber. For this, a cannula (0.30 x 12 mm, Sterican) was used. The injection point was sealed with silicone glue. After bacterial settling time of 30 min, the flow was started again and clamps were removed. Growth temperature was regulated by using a heat system (ibidi, […]\nGermany). […]",
  "data": [
    {"smiles": "O=C(CCc1ccc(O[C@@H]2O[C@H](CO)[C@H](O)[C@H](O)[C@H]2O)cc1)Nc1ccc(CN(CCc2cn(CCOCCOCCOCCNC(=S)Nc3ccc4c(c3)C(=O)OC43c4ccc(O)cc4Oc4cc(O)ccc43)nn2)Cc2ccc(NC(=O)CCc3ccc(O[C@@H]4O[C@H](CO)[C@H](O)[C@H](O)[C@H]4O)cc3)cc2)cc1", "note": "[compound 17]", "values": [
      {"measurement": "Biofilm staining after accumulation", "setting": "500 nM in medium, 4 h, fluorescence microscope", "result": "successfully stained PAO1 biofilms"},
      {"measurement": "Retention at biofilm after wash", "setting": "after 4 h accumulation at 500 nM, 30 min wash, no compound", "result": "still visible at a lower intensity"}
    ]}
  ]
}
